In patent US20250085273A1, “NOVEL RAPID DRUG DISCOVERY FOR SEPSIS AND AGENTS FOR USE AS SEPSIS THERAPY” (priority 2023, published 2025):

Tests used:
histamine H1 receptor = histamine H1 receptor (Homo sapiens, UniProt P35367); details: read-out: affinity for histamine H1 receptor; cited from earlier work
[1] = tested on: zebrafish (4 dpf pre-treated, LPS exposure at 5-dpf) challenged with P. aeruginosa LPS 60 μg/mL; format: in vivo, Danio rerio
Method in brief: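 PTU-treated 4 dpf zebrafish embryos received a 24-hour drug pre-treatment at 28.5 °C, alongside an untreated parallel group, before challenge at 5 dpf with P. aeruginosa LPS at 60 μg/mL. Tail edema and mortality were scored at 6 and 24 h post exposure, followed by a neurobehavioral test.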

muscarinic M1 receptor = target: T1, muscarinic M1 receptor (Homo sapiens, UniProt P11229); details: at 10 μM; cited from earlier work
T1 sequence (P11229 1-460): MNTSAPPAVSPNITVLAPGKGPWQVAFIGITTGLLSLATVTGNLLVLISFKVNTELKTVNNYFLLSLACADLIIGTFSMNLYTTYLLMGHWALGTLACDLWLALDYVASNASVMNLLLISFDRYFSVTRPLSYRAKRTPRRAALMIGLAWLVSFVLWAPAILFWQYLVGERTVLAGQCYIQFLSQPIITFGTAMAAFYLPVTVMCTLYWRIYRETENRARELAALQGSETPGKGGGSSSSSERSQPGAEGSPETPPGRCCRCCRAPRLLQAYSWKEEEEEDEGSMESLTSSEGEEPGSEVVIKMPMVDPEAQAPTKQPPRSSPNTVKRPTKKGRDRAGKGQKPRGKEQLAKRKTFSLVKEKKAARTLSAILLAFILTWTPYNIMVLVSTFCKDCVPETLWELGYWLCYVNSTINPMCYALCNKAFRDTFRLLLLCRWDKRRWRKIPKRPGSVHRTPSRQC

[2] = tested on: larval zebrafish locomotor behavior; format: in vivo; details: in vivo
From the text: This assay is a modified version of the larval zebrafish light dark transition assay with an added UV light (wavelength=295 nm) phase to capture any compound specific neurological effects to UV light. (Basnet et al., 2019, Kokel et al., 2013, Peng et al., 2016). The light period assesses deviations from normal locomotor behavior while the rapid transition to dark provides a measure of stress response by identifying any deviations from the normal heightened locomotor activity caused by the transition to dark. The neurobehavioral assay used a custom trial control script created by Noldus Ethovision XT 15, and it was executed in a Noldus DanioVision system. Zebrafish larvae in microplates were allowed to habituate in the DanioVision system for 5 minutes under white light conditions prior to the start of the test. The neurobehavioral assay consisted of three phases: a 3-minute light phase (white light), a 3-minute dark phase (no light) and a 5 second UV phase (UV light only). The Danio Vision system captured larval zebrafish movement throughout this assay at 30 frames per second.
LC50s for the LPS tests were determined using the Trimmed Spearmen-Karber method (Hamilton et al., 1977). The tail edema and mortality data from the initial and confirmatory drug testing was analyzed using GraphPad Prism 9 using Fisher's Exact Test. Each drug treatment group was compared pairwise with the on-board positive control group on each test plate. Statistical significance was determined with values of p≤0.05. Neurological behavioral testing data was analyzed by Ethovision software that produced an activity analysis profile per frame for each well of the 96 well plates. Any dead embryos were removed from the data set, and the remaining data set was imported into Excel. The offset function in Excel was used to average the percentage of pixel change per 0.1 s for each plate. […] The behavioral data was then statistically analyzed by drug per phase using a 2 tailed t-test to determine statistical significance p≤0.01.

noradrenergic α1A = target: T2, noradrenergic α1A (Homo sapiens, UniProt P35348); details: read-out: affinity (Ki) α1A; cited from earlier work
T2 sequence (P35348 1-466): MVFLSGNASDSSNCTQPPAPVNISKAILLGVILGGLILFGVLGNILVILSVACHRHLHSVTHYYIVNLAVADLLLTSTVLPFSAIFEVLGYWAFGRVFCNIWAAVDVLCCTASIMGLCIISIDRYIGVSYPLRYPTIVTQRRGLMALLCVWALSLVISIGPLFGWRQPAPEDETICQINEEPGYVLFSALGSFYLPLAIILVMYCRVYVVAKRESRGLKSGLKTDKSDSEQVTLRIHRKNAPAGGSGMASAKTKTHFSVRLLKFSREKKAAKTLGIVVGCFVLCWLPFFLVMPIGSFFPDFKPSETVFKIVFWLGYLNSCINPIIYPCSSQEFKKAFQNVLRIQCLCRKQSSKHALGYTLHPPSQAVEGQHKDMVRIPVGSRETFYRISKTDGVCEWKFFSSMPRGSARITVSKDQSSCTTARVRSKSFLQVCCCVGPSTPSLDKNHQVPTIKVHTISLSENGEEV

5-HT2B = 5-HT2B (Homo sapiens, UniProt P41595); details: read-out: affinity (Ki) 5-HT2B; cited from earlier work
[3] = number of n = 16 fish, 24-hour 10 μM drug pre-treatment
[4] = number of n = 16 fish, no 24-hour pre-treatment

Chain of histamine H1 receptor (P35367 whole entry, species assumed): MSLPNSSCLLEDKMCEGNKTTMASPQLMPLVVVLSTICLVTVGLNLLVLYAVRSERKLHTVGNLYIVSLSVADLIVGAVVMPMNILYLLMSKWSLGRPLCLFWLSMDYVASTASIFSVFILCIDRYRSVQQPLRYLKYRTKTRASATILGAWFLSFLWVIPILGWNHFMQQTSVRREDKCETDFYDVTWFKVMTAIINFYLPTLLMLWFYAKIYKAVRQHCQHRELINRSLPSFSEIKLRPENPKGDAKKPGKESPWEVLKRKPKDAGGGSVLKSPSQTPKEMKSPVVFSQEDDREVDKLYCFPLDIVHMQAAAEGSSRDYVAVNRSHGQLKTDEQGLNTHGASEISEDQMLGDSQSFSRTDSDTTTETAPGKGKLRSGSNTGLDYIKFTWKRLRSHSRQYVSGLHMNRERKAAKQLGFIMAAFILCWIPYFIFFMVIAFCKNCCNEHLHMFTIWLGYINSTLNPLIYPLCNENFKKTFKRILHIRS
Chain of 5-HT2B (P41595 whole entry, species assumed): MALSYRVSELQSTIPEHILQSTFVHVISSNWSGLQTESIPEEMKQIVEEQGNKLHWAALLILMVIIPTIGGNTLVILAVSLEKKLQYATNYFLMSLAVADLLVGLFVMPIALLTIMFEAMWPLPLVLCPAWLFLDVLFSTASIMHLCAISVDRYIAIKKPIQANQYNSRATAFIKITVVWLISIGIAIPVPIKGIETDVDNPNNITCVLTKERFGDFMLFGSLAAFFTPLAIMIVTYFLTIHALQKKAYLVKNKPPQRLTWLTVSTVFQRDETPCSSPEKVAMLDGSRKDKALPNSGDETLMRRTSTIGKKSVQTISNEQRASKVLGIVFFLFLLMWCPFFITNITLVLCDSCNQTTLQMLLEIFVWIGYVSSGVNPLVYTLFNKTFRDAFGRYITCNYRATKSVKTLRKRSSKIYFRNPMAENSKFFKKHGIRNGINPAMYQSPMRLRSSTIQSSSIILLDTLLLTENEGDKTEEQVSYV

SMILES: O=c1ccc2ccc(OCCCCN3CCN(c4cccc5sccc45)CC3)cc2[nH]1 [Compound 45, Brexpiprazole]
- Ki (histamine H1 receptor): 19 nM
- Pre-Treatment Rescue (n = 16) ([1]; 24-hour drug pre-treatment, P. aeruginosa LPS 60 μg/mL): 94%
- No Pre-Treatment Rescue (n = 16) ([1]; no 24-hour drug pre-treatment, P. aeruginosa LPS 60 μg/mL): 94%
- 24 hour Tail Edema, No-Drug Pretreatment ([1]; number of n = 16 fish, 10 μM drug with LPS 60 μg/mL, no 24-hour pre-treatment): 1 fish
- 24 Hour Mortality and Tail Edema, Drug Pretreatment [1, 3]: 1 fish
- 24 Hour Mortality, Drug Pretreatment [1, 3]: 1 fish
- 24 hour Tail Edema, Drug Pretreatment ([1]; number of n = 16 fish, 24-hour 10 μM drug pre-treatment before LPS 60 μg/mL): 0 fish
- 24 Hour Mortality and Tail Edema, No-Drug Pretreatment [1, 4]: 1 fish
- 24 Hour Mortality, No Drug Pretreatment [1, 4]: 0 fish
- inhibition, muscarinic M1 receptor (muscarinic M1 receptor): 67%
- activity during the dark phase [2]: not significant
- Ki (noradrenergic α1A): 3.8 nM
- Ki (5-HT2B): 1.9 nM
